Results published in EP0347459A1, “CEPHALOSPORIN COMPOUNDS OR THEIR SALTS, PROCESS FOR THEIR PREPARATION, AND PHARMACEUTICAL COMPOSITIONS” (TEIJIN LIMITED, priority 1987, dated 1988).
Converted amounts (≈) assume the structure as drawn. Where two headings read alike, the source gives them in different places.

Legend:
Format in all cases: cell-based
E.cloacae 963 = experiment: In vitro antibacterial activity, agar disc dilution method; conditions: read-out: minimum growth inhibitory concentration (MIC)
Protocol: (§1) An in vitro antibacterial activity was measured by an agar disc dilution method.
(§2) Varied test bacteria were cultivated overnight in triptophane-soybroth. A Mueller Hinton agar containing the compound of this invention in varied concentrations was streaked with one platinum loopful of each of the bacteria (number of living cells 10^6/ml).

K.pneumoniae PCI602 = experiment: as above; conditions: Klebsiella pneumoniae, read-out: minimum growth inhibitory concentration (MIC)
Protocol: as §1, §2

M.luteus ATCC9341 = experiment: as above; conditions: Micrococcus luteus, read-out: minimum growth inhibitory concentration (MIC)
Protocol: as §1, §2

P.aeruginosa IFO3445 = experiment: as above; conditions: Pseudomonas aeruginosa, read-out: minimum growth inhibitory concentration (MIC)
Protocol: as §1, §2

P.aeruginosa NCTC1049 = experiment: as above; conditions: Pseudomonas aeruginosa, read-out: minimum growth inhibitory concentration (MIC)
Protocol: as §1, §2

P.aeruginosa PAD1 = experiment: as above; conditions: Pseudomonas aeruginosa, read-out: minimum growth inhibitory concentration (MIC)
Protocol: as §1, §2

P.morganii IFO3445 = experiment: as above; conditions: Morganella morganii, read-out: minimum growth inhibitory concentration (MIC)
Protocol: as §1, §2

P.vulgalis OX-11 = experiment: as above; conditions: read-out: minimum growth inhibitory concentration (MIC)
Protocol: as §1, §2

S. aureus Terajima = experiment: as above; conditions: Staphylococcus aureus, read-out: minimum growth inhibitory concentration (MIC)
Protocol: as §1, §2

S.aureus 209p NIHJ JC1 = experiment: as above; conditions: Staphylococcus aureus, read-out: minimum growth inhibitory concentration (MIC)
Protocol: as §1, §2

S.enteritidis G14 = experiment: as above; conditions: Salmonella enterica, read-out: minimum growth inhibitory concentration (MIC)
Protocol: as §1, §2

S.marcescens IAM1184 = experiment: as above; conditions: Serratia marcescens, read-out: minimum growth inhibitory concentration (MIC)
Protocol: as §1, §2

S.pyogenes Cook = experiment: as above; conditions: Streptococcus pyogenes, read-out: minimum growth inhibitory concentration (MIC)
Protocol: as §1, §2

S.typhi 901 = experiment: as above; conditions: Salmonella enterica, 16 h, read-out: minimum growth inhibitory concentration (MIC)
Protocol: as §1, §2

P.aeruginosa 0-11 = experiment: MIC values of 10 kinds of Pseudomonas aeruginosa; conditions: Pseudomonas aeruginosa, 011, 16 h, read-out: MIC values
Protocol: as §1, §2
(§3) MIC values of 10 kinds of Pseudomonas aeruginosa were measured for Compound III, Comparative Example B and CAZ.

P.aeruginosa 64 = experiment: MIC values of 10 kinds of Pseudomonas aeruginosa; conditions: read-out: MIC values
Protocol: as §1, §2, §3

P.aeruginosa 88 = experiment: MIC values of 10 kinds of Pseudomonas aeruginosa; conditions: read-out: MIC values
Protocol: as §1, §2, §3

P.aeruginosa ATCC27318 = experiment: MIC values of 10 kinds of Pseudomonas aeruginosa; conditions: read-out: MIC values
Protocol: as §1, §2, §3

P.aeruginosa ATCC27577 = experiment: MIC values of 10 kinds of Pseudomonas aeruginosa; conditions: read-out: MIC values
Protocol: as §1, §2, §3

P.aeruginosa N-26 = experiment: MIC values of 10 kinds of Pseudomonas aeruginosa; conditions: N26, 16 h, read-out: MIC values
Protocol: as §1, §2, §3

P.aeruginosa N-2 = experiment: MIC values of 10 kinds of Pseudomonas aeruginosa; conditions: N2, 16 h, read-out: MIC values
Protocol: as §1, §2, §3

P.aeruginosa N-3 = experiment: MIC values of 10 kinds of Pseudomonas aeruginosa; conditions: N3, 16 h, read-out: MIC values
Protocol: as §1, §2, §3

P.aeruginosa NO. 97 = experiment: MIC values of 10 kinds of Pseudomonas aeruginosa; conditions: read-out: MIC values
Protocol: as §1, §2, §3

P.aeruginosa Tid53 = experiment: MIC values of 10 kinds of Pseudomonas aeruginosa; conditions: read-out: MIC values
Protocol: as §1, §2, §3

[1] = Enterobacter cloacae, E.cloacae 963, Mueller Hinton agar, 10^6/ml, 37°C for 16 hours
[2] = K.pneumoniae PCI602, Mueller Hinton agar, 10^6/ml, 37°C for 16 hours
[3] = M.luteus ATCC9341, Mueller Hinton agar, 10^6/ml, 37°C for 16 hours
[4] = P.aeruginosa IFO3445, Mueller Hinton agar, 10^6/ml, 37°C for 16 hours
[5] = P.aeruginosa NCTC1049, Mueller Hinton agar, 10^6/ml, 37°C for 16 hours
[6] = P.aeruginosa PAD1, Mueller Hinton agar, 10^6/ml, 37°C for 16 hours
[7] = P.morganii IFO3445, Mueller Hinton agar, 10^6/ml, 37°C for 16 hours
[8] = P.vulgalis OX-11, Mueller Hinton agar, 10^6/ml, 37°C for 16 hours
[9] = S. aureus Terajima, Mueller Hinton agar, 10^6/ml, 37°C for 16 hours
[10] = S.aureus 209p NIHJ JC1, Mueller Hinton agar, 10^6/ml, 37°C for 16 hours
[11] = S.enteritidis G14, Mueller Hinton agar, 10^6/ml, 37°C for 16 hours
[12] = S.marcescens IAM1184, Mueller Hinton agar, 10^6/ml, 37°C for 16 hours
[13] = S.pyogenes Cook, Mueller Hinton agar, 10^6/ml, 37°C for 16 hours

Work on `CC(C)(ON=C(C(=O)NC1C(=O)N2C(C(=O)[O-])=C(C[n+]3ccc4cc(O)c(O)cc4c3)CSC12)c1csc(N)n1)C(=O)O` [Comparative Compound B, (6R,7R)-7-[(Z)-2-(2-amino-l,3-thiazol-4-yl)-2-(2-carboxypropyl-2-yloxyimino)acetamide]-3-(6,7-dihydroxy-2-isoquinolinium)methyl-3-cephem-4-carboxylate, reference compound] yielded an MIC (E.cloacae 963; [1]) of 0.005 µg/mL (≈ 0.00795 µM), an MIC (K.pneumoniae PCI602; [2]) of 0.005 µg/mL (≈ 0.00795 µM) and an MIC (M.luteus ATCC9341; [3]) of 3.1 µg/mL (≈ 4.93 µM). For the same compound, the MIC (P.aeruginosa IFO3445; [4]) was 0.025 µg/mL (≈ 0.0398 µM), the MIC (P.aeruginosa NCTC1049; [5]) was 0.0125 µg/mL (≈ 0.0199 µM) and the MIC (P.aeruginosa PAD1; [6]) was 0.025 µg/mL (≈ 0.0398 µM). It also gave an MIC (P.morganii IFO3445; [7]) of 0.005 µg/mL (≈ 0.00795 µM), an MIC (P.vulgalis OX-11; [8]) of 0.005 µg/mL (≈ 0.00795 µM) and an MIC (S. aureus Terajima; [9]) of 3.1 µg/mL (≈ 4.93 µM). The MIC (S.aureus 209p NIHJ JC1; [10]) was 12.5 µg/mL (≈ 19.9 µM), the MIC (S.enteritidis G14; [11]) was 0.005 µg/mL (≈ 0.00795 µM) and the MIC (S.marcescens IAM1184; [12]) was 0.005 µg/mL (≈ 0.00795 µM). For the same compound, the MIC (S.pyogenes Cook; [13]) was 1.6 µg/mL (≈ 2.55 µM), the MIC (S.typhi 901) was 0.005 µg/mL (≈ 0.00795 µM) and the MIC (P.aeruginosa 0-11; P.aeruginosa 0-11 (Table II)) was 0.05 µg/mL (≈ 0.0795 µM). It also gave an MIC (P.aeruginosa 64; Pseudomonas aeruginosa, 16 h, P.aeruginosa 64 (Table II)) of 0.05 µg/mL (≈ 0.0795 µM), an MIC (P.aeruginosa 88; Pseudomonas aeruginosa, 16 h, P.aeruginosa 88 (Table II)) of 0.025 µg/mL (≈ 0.0398 µM) and an MIC (P.aeruginosa ATCC27318; 16 h, P.aeruginosa ATCC27318 (Table II)) of 0.05 µg/mL (≈ 0.0795 µM). It also gave an MIC (P.aeruginosa ATCC27577; 16 h, P.aeruginosa ATCC27577 (Table II)) of 0.005 µg/mL (≈ 0.00795 µM), an MIC (P.aeruginosa N-26; P.aeruginosa N-26 (Table II)) of 0.1 µg/mL (≈ 0.159 µM) and an MIC (P.aeruginosa N-2; P.aeruginosa N-2 (Table II)) of 0.05 µg/mL (≈ 0.0795 µM). The MIC (P.aeruginosa N-3; P.aeruginosa N-3 (Table II)) was 0.05 µg/mL (≈ 0.0795 µM), the MIC (P.aeruginosa NO. 97; 16 h, P.aeruginosa NO. 97 (Table II)) was 0.025 µg/mL (≈ 0.0398 µM) and the MIC (P.aeruginosa Tid53; 16 h, P.aeruginosa Tid53 (Table II)) was 0.05 µg/mL (≈ 0.0795 µM).
For `CC(C)(O/N=C(\C(=O)N[C@@H]1C(=O)N2C(C(=O)[O-])=C(C[n+]3ccccc3)CS[C@H]12)c1csc(N)n1)C(=O)O` [CAZ, (6R,7R)-7-[(Z)-2-(2-amino-1,3-thiazol-4-yl)-2-(2-carbcxypropyl-2-yloxyimino)acetamide]-3-(l-pyridinium)methyl-3-cephem-4-carboxylate, reference compound], the MIC (E.cloacae 963; Enterobacter cloacae, 963, 16 h) was 0.05 µg/mL (≈ 0.0915 µM), the MIC (K.pneumoniae PCI602; PCI602, 16 h) was 0.025 µg/mL (≈ 0.0457 µM) and the MIC (M.luteus ATCC9341; ATCC9341, 16 h) was 0.4 µg/mL (≈ 0.732 µM). For the same compound, the MIC (P.aeruginosa IFO3445; IFO3445, 16 h) was 0.4 µg/mL (≈ 0.732 µM), the MIC (P.aeruginosa NCTC1049; NCTC1049, 16 h) was 0.4 µg/mL (≈ 0.732 µM) and the MIC (P.aeruginosa PAD1; PAD1, 16 h) was 0.4 µg/mL (≈ 0.732 µM). For the same compound, the MIC (P.morganii IFO3445; IFO3445, 16 h) was 0.0125 µg/mL (≈ 0.0229 µM), the MIC (P.vulgalis OX-11; 16 h) was 0.005 µg/mL (≈ 0.00915 µM) and the MIC (S. aureus Terajima; 16 h) was 1.6 µg/mL (≈ 2.93 µM). The MIC (S.aureus 209p NIHJ JC1; 16 h) was 6.3 µg/mL (≈ 11.5 µM), the MIC (S.enteritidis G14; ENTERITIDIS, 16 h) was 0.005 µg/mL (≈ 0.00915 µM) and the MIC (S.marcescens IAM1184; IAM1184, 16 h) was 0.025 µg/mL (≈ 0.0457 µM). For the same compound, the MIC (S.pyogenes Cook; 16 h) was 0.4 µg/mL (≈ 0.732 µM), the MIC (S.typhi 901) was 0.1 µg/mL (≈ 0.183 µM) and the MIC (P.aeruginosa 0-11) was 3.1 µg/mL (≈ 5.67 µM). The MIC (P.aeruginosa 64; Pseudomonas aeruginosa, 64, 16 h) was 3.1 µg/mL (≈ 5.67 µM), the MIC (P.aeruginosa 88; Pseudomonas aeruginosa, 88, 16 h) was 0.8 µg/mL (≈ 1.46 µM) and the MIC (P.aeruginosa ATCC27318; ATCC27318, 16 h) was 1.6 µg/mL (≈ 2.93 µM). The MIC (P.aeruginosa ATCC27577; ATCC27577, 16 h) was 0.2 µg/mL (≈ 0.366 µM), the MIC (P.aeruginosa N-26) was 1.6 µg/mL (≈ 2.93 µM) and the MIC (P.aeruginosa N-2) was 0.8 µg/mL (≈ 1.46 µM). For the same compound, the MIC (P.aeruginosa N-3) was 1.6 µg/mL (≈ 2.93 µM), the MIC (P.aeruginosa NO. 97; NO.97, 16 h) was 3.1 µg/mL (≈ 5.67 µM) and the MIC (P.aeruginosa Tid53; TID53, 16 h) was 6.3 µg/mL (≈ 11.5 µM).
`Nc1nc(C(=NOCC(=O)O)C(=O)NC2C(=O)N3C(C(=O)[O-])=C(C[n+]4ccc5cc(O)c(O)cc5c4)CSC23)ns1` [Compound II, (6R,7R)-7-[(Z)-5-amino-1,2,4-thiadiazol-3-yl)-2-(carboxymethoxyimino)acetamidel-3-(6,7-dihydroxy-2-isoquinolinium)methyl-3-cephem-4-carboxylate] gave an MIC (E.cloacae 963; [1]) of 0.005 µg/mL (≈ 0.00831 µM), an MIC (K.pneumoniae PCI602; [2]) of 0.005 µg/mL (≈ 0.00831 µM) and an MIC (M.luteus ATCC9341; [3]) of 1.6 µg/mL (≈ 2.66 µM). It also gave an MIC (P.aeruginosa IFO3445; [4]) of 0.05 µg/mL (≈ 0.0831 µM), an MIC (P.aeruginosa NCTC1049; [5]) of 0.0125 µg/mL (≈ 0.0208 µM) and an MIC (P.aeruginosa PAD1; [6]) of 0.025 µg/mL (≈ 0.0416 µM). For the same compound, the MIC (P.morganii IFO3445; [7]) was 0.005 µg/mL (≈ 0.00831 µM), the MIC (P.vulgalis OX-11; [8]) was 0.005 µg/mL (≈ 0.00831 µM) and the MIC (S. aureus Terajima; [9]) was 3.1 µg/mL (≈ 5.15 µM). The MIC (S.aureus 209p NIHJ JC1; [10]) was 12.5 µg/mL (≈ 20.8 µM), the MIC (S.enteritidis G14; [11]) was 0.005 µg/mL (≈ 0.00831 µM) and the MIC (S.marcescens IAM1184; [12]) was 0.005 µg/mL (≈ 0.00831 µM). It also gave an MIC (S.pyogenes Cook; [13]) of 0.2 µg/mL (≈ 0.332 µM) and an MIC (S.typhi 901) of 0.005 µg/mL (≈ 0.00831 µM).
